# Reference: patent US20260070945A1, “MACROCYCLIC IMMUNOMODULATORS” (Bristol-Myers Squibb Company, priority 2022, published 2026)
# Where a SMILES comes first, the peptide text is derived from it. Bridges are numbered along the chain shown (N, C = ends). [ ]: non-standard residue; d: D form. The star is where a group is joined. ξ: configuration not given here. Phe(4-COOH) = N[C@@H](Cc1ccc(C(=O)O)cc1)C(=O)O; Bip = N[C@@H](Cc1ccc(-c2ccccc2)cc1)C(=O)O; Phe(3-Me) = Cc1cccc(C[C@H](N)C(=O)O)c1; Val(3-OH) = CC(C)(O)[C@H](N)C(=O)O; Cha = N[C@@H](CC1CCCCC1)C(=O)O; Cit = NC(=O)NCCC[C@H](N)C(=O)O; Thr(3ξ) = CC(O)[C@H](N)C(=O)O; Carboxymethyl = O=C(O)C*; NMeA = CN[C@@H](C)C(=O)O; Aun = NCCCCCCCCCCC(=O)O; Dab = NCC[C@H](N)C(=O)O; AEEA = NCCOCCOCC(=O)O
# Target: T1, PD-1/PD-L1 interaction (PE-labeled human PD-L1-Ig binding to Jurkat cell line over-expressing human PD-1) (Homo sapiens, UniProt Q15116)
# T1 construct: expressed in transfected cells; host or cells: Jurkat
# T1 sequence (Q15116 25-288): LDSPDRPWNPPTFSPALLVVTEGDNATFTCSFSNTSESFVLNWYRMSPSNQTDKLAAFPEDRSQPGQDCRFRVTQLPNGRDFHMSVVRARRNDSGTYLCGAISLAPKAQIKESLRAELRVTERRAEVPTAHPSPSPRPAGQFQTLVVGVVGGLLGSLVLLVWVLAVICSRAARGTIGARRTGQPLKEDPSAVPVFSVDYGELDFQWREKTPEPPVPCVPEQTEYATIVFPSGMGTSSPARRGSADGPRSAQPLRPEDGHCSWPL
# Test: Jurkat-PD-1 Cell Binding High-Content Screening Assay (CBA)
# Details: Jurkat-hPD-1 cells, PE-labeled PD-L1-Ig 20 nM final; read-out: Jurkat HPD1 PDL1 IC50
# Method in brief: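 In this imaging assay, cells in 10% FCS medium see compound for 2 h at 37 °C and then labeled ligand at 20 nM final for 1 h. Paraformaldehyde fixation, Hoechst 33342 staining and dPBS washes precede image capture.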
row,IC50 [nM],SMILES
1,40.4,CC(C)C[C@@H]1NC(=O)[C@H](Cc2c[nH]c3ccccc23)NC(=O)[C@H](CC(=O)O)NC(=O)[C@H](Cc2ccc(OCC(=O)O)cc2)NC(=O)[C@H](Cc2ccc(OCC(=O)O)cc2)NC(=O)CSC[C@@H](C(=O)NCCOCCOCC(=O)NCCCCCCCCCCC(=O)O)NC(=O)[C@H](CO)NC(=O)[C@H](C(C)(C)O)NC(=O)[C@H](CC2CCCCC2)NC(=O)[C@H](CCN)NC(=O)[C@@H](CC(C)C)NC(=O)[C@H](C)N(C)C(=O)[C@H](C(C)C)NC(=O)[C@H](Cc2ccc(-c3ccccc3)cc2)NC1=O [Example 2444] ({CH2CO}-Y(Carboxymethyl)Y(Carboxymethyl)DWL[Bip]V[NMeA][dL][Dab][Cha][Val(3-OH)]SC[AEEA][Aun]-OH; thioether N-14)
2,46.5,CC(C)C[C@@H]1NC(=O)[C@H](Cc2c[nH]c3ccccc23)NC(=O)[C@H](CC(=O)O)NC(=O)[C@H](Cc2ccc(OCC(=O)O)cc2)NC(=O)[C@H](Cc2ccc(OCC(=O)O)cc2)NC(=O)CSC[C@@H](C(=O)NCCOCCOCC(=O)NCCCCCCCCCCC(=O)O)NC(=O)[C@H](CO)NC(=O)[C@H](Cc2cnc[nH]2)NC(=O)[C@H](CC2CCCCC2)NC(=O)[C@H](CCN)NC(=O)[C@@H](CC(C)C)NC(=O)[C@H](C)N(C)C(=O)[C@H](C(C)C)NC(=O)[C@H](Cc2ccc(-c3ccccc3)cc2)NC1=O [Example 2445] ({CH2CO}-Y(Carboxymethyl)Y(Carboxymethyl)DWL[Bip]V[NMeA][dL][Dab][Cha]HSC[AEEA][Aun]-OH; thioether N-14)
3,239,CC(C)C[C@@H]1NC(=O)[C@H](Cc2c[nH]c3ccccc23)NC(=O)[C@H](CC(=O)O)NC(=O)[C@H](Cc2ccc(OCC(=O)O)cc2)NC(=O)[C@H](Cc2ccc(OCC(=O)O)cc2)NC(=O)CSC[C@@H](C(=O)NCCOCCOCC(=O)NCCCCCCCCCCC(=O)O)NC(=O)[C@H](CO)NC(=O)[C@H](C(C)(C)O)NC(=O)[C@H](CC2CCCCC2)NC(=O)[C@H](CC(N)=O)NC(=O)[C@@H](CC(C)C)NC(=O)[C@H](C)N(C)C(=O)[C@H](C(C)C)NC(=O)[C@H](Cc2ccc(-c3ccccc3)cc2)NC1=O [Example 2446] ({CH2CO}-Y(Carboxymethyl)Y(Carboxymethyl)DWL[Bip]V[NMeA][dL]N[Cha][Val(3-OH)]SC[AEEA][Aun]-OH; thioether N-14)
4,38.2,CC(=O)NCC[C@@H]1NC(=O)[C@H](C(C)(C)O)NC(=O)[C@H](CC2CCCCC2)NC(=O)[C@H](CCN)NC(=O)[C@@H](CC(C)C)NC(=O)[C@H](C)N(C)C(=O)[C@H](C(C)C)NC(=O)[C@H](Cc2ccc(-c3ccccc3)cc2)NC(=O)[C@H](CC(C)C)NC(=O)[C@H](Cc2c[nH]c3ccccc23)NC(=O)[C@H](CC(=O)O)NC(=O)[C@H](Cc2ccc(OCC(=O)O)cc2)NC(=O)[C@H](Cc2ccc(OCC(=O)O)cc2)NC(=O)CSC[C@@H](C(=O)NCCOCCOCC(=O)NCCCCCCCCCCC(=O)O)NC1=O [Example 2447] ({CH2CO}-Y(Carboxymethyl)Y(Carboxymethyl)DWL[Bip]V[NMeA][dL][Dab][Cha][Val(3-OH)][Dab](Ac)C[AEEA][Aun]-OH; thioether N-14)

# Same assay, conditions: PE-labeled PD-L1-Ig 20 nM final, Jurkat-hPD-1 cells; read-out: Jurkat HPD1 PDL1 IC50
row,IC50 [nM],SMILES
1,140,Cc1cccc(C[C@@H]2NC(=O)[C@H](CC(=O)O)NC(=O)[C@H](Cc3ccc(OCC(=O)O)cc3)NC(=O)[C@H](C(C)O)NC(=O)CSC[C@@H](C(=O)NCCOCCOCC(=O)NCCCCCCCCCCC(=O)O)NC(=O)[C@H](Cc3cnc[nH]3)NC(=O)[C@H](C(C)(C)O)NC(=O)[C@H](CC3CCCCC3)NC(=O)[C@H](CCN)NC(=O)[C@@H](CC(C)C)NC(=O)[C@H](C)N(C)C(=O)[C@H](Cc3ccc(OCC(=O)O)cc3)NC(=O)[C@H](Cc3ccc(-c4ccccc4)cc3)NC(=O)[C@H](Cc3ccc(C(=O)O)cc3)NC2=O)c1 (stereo partly drawn) [Example 2431] ({CH2CO}-[Thr(3ξ)]Y(Carboxymethyl)D[Phe(3-Me)][Phe(4-COOH)][Bip]Y(Carboxymethyl)[NMeA][dL][Dab][Cha][Val(3-OH)]HC[AEEA][Aun]-OH; thioether N-14)
2,35.2,CC(C)C[C@@H]1NC(=O)[C@H](Cc2c[nH]c3ccccc23)NC(=O)[C@H](CC(=O)O)NC(=O)[C@H](Cc2ccc(C(=O)O)cc2)NC(=O)[C@H](Cc2ccc(OCC(=O)O)cc2)NC(=O)CSC[C@@H](C(=O)NCCOCCOCC(=O)NCCCCCCCCCCC(=O)O)NC(=O)[C@H](CO)NC(=O)[C@H](C(C)O)NC(=O)[C@H](CC2CCCCC2)NC(=O)[C@H](CCN)NC(=O)[C@@H](CC(C)C)NC(=O)[C@H](C)N(C)C(=O)[C@H](C(C)C)NC(=O)[C@H](Cc2ccc(-c3ccccc3)cc2)NC1=O (stereo partly drawn) [Example 2433] ({CH2CO}-Y(Carboxymethyl)[Phe(4-COOH)]DWL[Bip]V[NMeA][dL][Dab][Cha][Thr(3ξ)]SC[AEEA][Aun]-OH; thioether N-14)
3,25.5,CC(C)C[C@@H]1NC(=O)[C@H](Cc2c[nH]c3ccccc23)NC(=O)[C@H](CC(=O)O)NC(=O)[C@H](Cc2ccc(C(=O)O)cc2)NC(=O)[C@H](Cc2ccc(OCC(=O)O)cc2)NC(=O)CSC[C@@H](C(=O)NCCOCCOCC(=O)NCCCCCCCCCCC(=O)O)NC(=O)[C@H](Cc2cnc[nH]2)NC(=O)[C@H](C(C)O)NC(=O)[C@H](CC2CCCCC2)NC(=O)[C@H](CCN)NC(=O)[C@@H](CC(C)C)NC(=O)[C@H](C)N(C)C(=O)[C@H](C(C)C)NC(=O)[C@H](Cc2ccc(-c3ccccc3)cc2)NC1=O (stereo partly drawn) [Example 2435] ({CH2CO}-Y(Carboxymethyl)[Phe(4-COOH)]DWL[Bip]V[NMeA][dL][Dab][Cha][Thr(3ξ)]HC[AEEA][Aun]-OH; thioether N-14)
4,31.4,CC(C)C[C@@H]1NC(=O)[C@H](Cc2c[nH]c3ccccc23)NC(=O)[C@H](CC(=O)O)NC(=O)[C@H](Cc2ccc(OCC(=O)O)cc2)NC(=O)[C@H](Cc2ccc(OCC(=O)O)cc2)NC(=O)CSC[C@@H](C(=O)NCCOCCOCC(=O)NCCCCCCCCCCC(=O)O)NC(=O)[C@H](Cc2cnc[nH]2)NC(=O)[C@H](CO)NC(=O)[C@H](CC2CCCCC2)NC(=O)[C@H](CCN)NC(=O)[C@@H](CC(C)C)NC(=O)[C@H](C)N(C)C(=O)[C@H](C(C)C)NC(=O)[C@H](Cc2ccc(-c3ccccc3)cc2)NC1=O [Example 2436] ({CH2CO}-Y(Carboxymethyl)Y(Carboxymethyl)DWL[Bip]V[NMeA][dL][Dab][Cha]SHC[AEEA][Aun]-OH; thioether N-14)
5,34.9,CC(C)C[C@@H]1NC(=O)[C@H](Cc2c[nH]c3ccccc23)NC(=O)[C@H](CC(=O)O)NC(=O)[C@H](Cc2ccc(OCC(=O)O)cc2)NC(=O)[C@H](C(C)O)NC(=O)CSC[C@@H](C(=O)NCCOCCOCC(=O)NCCCCCCCCCCC(=O)O)NC(=O)[C@H](C(C)O)NC(=O)[C@H](C(C)C)NC(=O)[C@H](CC2CCCCC2)NC(=O)[C@H](CCN)NC(=O)[C@@H](CC(C)C)NC(=O)[C@H](C)N(C)C(=O)[C@H](CCCNC(N)=O)NC(=O)[C@H](Cc2ccc(-c3ccccc3)cc2)NC1=O (stereo partly drawn) [Example 2437] ({CH2CO}-[Thr(3ξ)]Y(Carboxymethyl)DWL[Bip][Cit][NMeA][dL][Dab][Cha]V[Thr(3ξ)]C[AEEA][Aun]-OH; thioether N-14)
6,16.8,CC(=O)NCCCC[C@@H]1NC(=O)[C@H](Cc2ccc(-c3ccccc3)cc2)NC(=O)[C@H](CC(C)C)NC(=O)[C@H](Cc2c[nH]c3ccccc23)NC(=O)[C@H](CC(=O)O)NC(=O)[C@H](Cc2ccc(OCC(=O)O)cc2)NC(=O)[C@H](Cc2ccc(OCC(=O)O)cc2)NC(=O)CSC[C@@H](C(=O)NCCOCCOCC(=O)NCCCCCCCCCCC(=O)O)NC(=O)[C@H](CO)NC(=O)[C@H](C(C)C)NC(=O)[C@H](CC2CCCCC2)NC(=O)[C@H](CCN)NC(=O)[C@@H](CC(C)C)NC(=O)[C@H](C)N(C)C1=O [Example 2438] ({CH2CO}-Y(Carboxymethyl)Y(Carboxymethyl)DWL[Bip]K(Ac)[NMeA][dL][Dab][Cha]VSC[AEEA][Aun]-OH; thioether N-14)
7,33.8,CC(C)C[C@@H]1NC(=O)[C@H](Cc2c[nH]c3ccccc23)NC(=O)[C@H](CC(=O)O)NC(=O)[C@H](Cc2ccc(C(=O)O)cc2)NC(=O)[C@H](Cc2ccc(OCC(=O)O)cc2)NC(=O)CSC[C@@H](C(=O)NCCOCCOCC(=O)NCCCCCCCCCCC(=O)O)NC(=O)[C@H](Cc2cnc[nH]2)NC(=O)[C@H](C(C)C)NC(=O)[C@H](CC2CCCCC2)NC(=O)[C@H](CCN)NC(=O)[C@@H](CC(C)C)NC(=O)[C@H](C)N(C)C(=O)[C@H](C(C)C)NC(=O)[C@H](Cc2ccc(-c3ccccc3)cc2)NC1=O [Example 2441] ({CH2CO}-Y(Carboxymethyl)[Phe(4-COOH)]DWL[Bip]V[NMeA][dL][Dab][Cha]VHC[AEEA][Aun]-OH; thioether N-14)
8,37.9,CC(C)C[C@@H]1NC(=O)[C@H](Cc2c[nH]c3ccccc23)NC(=O)[C@H](CC(=O)O)NC(=O)[C@H](Cc2ccc(OCC(=O)O)cc2)NC(=O)[C@H](Cc2ccc(OCC(=O)O)cc2)NC(=O)CSC[C@@H](C(=O)NCCOCCOCC(=O)NCCCCCCCCCCC(=O)O)NC(=O)[C@H](Cc2c[nH]cn2)NC(=O)[C@H](C(C)C)NC(=O)[C@H](CC2CCCCC2)NC(=O)[C@H](CCN)NC(=O)[C@@H](CC(C)C)NC(=O)[C@H](C)N(C)C(=O)[C@H](C(C)C)NC(=O)[C@H](Cc2ccc(-c3ccccc3)cc2)NC1=O [Example 2442] ({CH2CO}-Y(Carboxymethyl)Y(Carboxymethyl)DWL[Bip]V[NMeA][dL][Dab][Cha]VHC[AEEA][Aun]-OH; thioether N-14)
9,23.6,CC(C)C[C@@H]1NC(=O)[C@H](Cc2c[nH]c3ccccc23)NC(=O)[C@H](CC(=O)O)NC(=O)[C@H](Cc2ccc(C(=O)O)cc2)NC(=O)[C@H](Cc2ccc(OCC(=O)O)cc2)NC(=O)CSC[C@@H](C(=O)NCCOCCOCC(=O)NCCCCCCCCCCC(=O)O)NC(=O)[C@H](CO)NC(=O)[C@H](C(C)(C)O)NC(=O)[C@H](CC2CCCCC2)NC(=O)[C@H](CCN)NC(=O)[C@@H](CC(C)C)NC(=O)[C@H](C)N(C)C(=O)[C@H](C(C)C)NC(=O)[C@H](Cc2ccc(-c3ccccc3)cc2)NC1=O [Example 2443] ({CH2CO}-Y(Carboxymethyl)[Phe(4-COOH)]DWL[Bip]V[NMeA][dL][Dab][Cha][Val(3-OH)]SC[AEEA][Aun]-OH; thioether N-14)
